Experimental findings from paper PMC12371865 (2025) are described below.

For test [1], the system named is d(G5C5)2 (DNA, duplex) GGGGGCCCCC
Briefly: luminescence titration at 630 nm, Bard fit. Conditions: K+ (50 mM potassium phosphate), pH 7, per base.

For test [2], the system named is hTel (hybrid-1 quadruplex, K+ stabilized) (DNA, G4) TTGGGTTAGGGTTAGGGTTAGGGA
Briefly: luminescence titration at 630 nm, Bard fit. Conditions: K+ (50 mM potassium phosphate), pH 7, per base.

For test [3], the system named is polyG (polyguanylic acid) (RNA, polymer) G. Briefly: luminescence quenching and UV-vis hypochromism titration. Conditions: qualitative; enantiomer not stated.

Regarding `N#Cc1cccc2nc3c4cccnc4c4ncccc4c3nc12.[Ru+2].c1cnc2c(ccc3nccnc32)n1.c1cnc2c(ccc3nccnc32)n1`, the K b was 7.8(±0.8) × 10^5 M^-1 in test [1] (binding-site size 2.1(±0.1)), 1.3(±0.2) × 10^6 M^-1 in test [1] (binding-site size 2.2(±0.1)), 5.7(±0.2) × 10^5 M^-1 in test [2] (binding-site size 1.4(±0.1)) and 2.7(±0.2) × 10^5 M^-1 in test [2] (binding-site size 2.7(±0.1)). The binding result in test [3] was “yes”.
